From PMC4012000 (Pharmaceutical research, 2013)

Tested on: Caco-2 cells
Experiment: Effect of curcumin on efflux transporters and permeability in Caco-2 cells
Type: cell-based
Settings: in vitro studies, data not shown

For `COc1cc(/C=C/C(=O)CC(=O)/C=C/c2ccc(O)c(OC)c2)ccc1O` [curcumin, Curcumin], the “effect on efflux transporters” value was “down-regulation of BCRP, MDR1 and MRP1”.
